Reference: US20180051346A1, “METHODS AND MEANS FOR SUBTYPING INVASIVE LOBULAR BREAST CANCER” (Stichting Het Nederlands Kanker Instituut-Antoni van …, priority 2015, published 2018)

tested on: ILC cell lines; test: Drug sensitivity on the Sanger cell line panel, differential response between IR and HR subtype cell lines; type: cell-based; details: IR subtype cell lines (10) vs HR subtype cell lines (5); two-sided t-test between the AUC of the dose-response curves; Sanger response data (Garnett et al., 2012)
Protocol: Drug sensitivity was assessed on the Sanger cell line panel (internal version 17). We used the cell lines common in our ILC cell line panel and in the Sanger cell line panel. We used cell line AU565 instead of SK-BR-3, which is derived from the same patient. Among the 262 drugs, we focused our assessment on 88 agents that had measurement in at least three cell lines per subtype. With this dataset, we performed a two-sided t-test between the AUC of the dose-response curves of the cell lines in the two subtypes, correcting for multiple testing with the Benjamini-Hochberg method.
To identify candidate therapeutic options, we profiled a set of 15 ILC cell lines as in vitro models. We used their gene expression profiles to map them to the IR (10 cell lines) and HR (5 cell lines). We then used the response data for 88 drugs on a subset of these cell lines, as provided by the Wellcome Trust Sanger Institute (Garnett et al., 2012. Nature 483: 570-575), to test for differential drug sensitivity between the subtypes. We retained six drugs at an FDR<0.25 (FIG. 2).

Row | Compound | differential drug sensitivity between the subtypes
1 | N.N.[Cl][Pt][Cl] [Cisplatin] | more sensitive
2 | CCc1c2c(nc3ccc(O)cc13)-c1cc3c(c(=O)n1C2)COC(=O)[C@]3(O)CC [SN-38, (+)-(4S)-4,11-diethyl-4,9-dihydroxy-1H-pyrano[3′,4′:6,7]-indolizino[1,2-b]quinoline-3,14(4H,12H)-dione] | more sensitive
3 | Bleomycin | more sensitive
